Patent publication US5464617A, “β-lactam compounds” (Hoffmann-La Roche Inc., priority 1994, dated 1995)
Where a name gives a salt, the structure may show the parent alone.

How the values were obtained:
E. coli 1346 = test: Antibacterial activity of the products per se, serial dilution method in liquid medium (Test E); format: cell-based; conditions: test E, product per se
Description: The antibacterial activity of the products per se is illustrated on the basis of Table 3 hereinafter, the minimum inhibitory concentration […] in vitro against E. coli 1346 being determined using the serial dilution method in liquid medium: […]

[1] = tested on: Citrobacter freundii 1982; test: MIC in vitro of a 1:4 combination of ceftriaxone with a compound of formula I (Test D); format: cell-based; conditions: test D
Procedure: The minimum inhibitory concentration in vitro ([…]) of a 1:4 combination of ceftriaxone with a compound of formula I against Citrobacter freundii 1982 was measured and compiled in Table 2 hereinafter.

[2] = Table 4, 1:4 combination of ceftriaxone with the compound
[3] = Table 5, particularly preferred products
[4] = Table 5, particularly preferred products, 1:4 combination with ceftriaxone

MIC E. coli 1346 (E) (E. coli 1346; Table 4) [µg/mL] | MIC C. freundii 1982 (D) [1, 2] [µg/mL] | MIC E. coli 1346 (E) (E. coli 1346; [3]) [µg/mL] | MIC C. freundii 1982 (D) [1, 4] [µg/mL] | SMILES
1 | 0.5 | – | – | Cc1nnc(SCC2=C(C(=O)O)N3C(=O)[C@@H]4[C@H]3[C@H](C2)CN4C=O)s1 [65(e), (1aS,3aR,6bR)-2-Formyl-5-(5-methyl-1,3,4-thiadiazol-2-ylsulphanylmethyl)-1-oxo-1a,2,3,3a,4,6b-hexahydro-1H-2,6a-diazacyclobut[cd]indene-6-carboxylicacid sodium salt]
0.5 | 8 | – | – | CC(=O)N1C[C@H]2CC(CSc3nc(-c4cccnc4)cs3)=C(C(=O)O)N3C(=O)[C@@H]1[C@@H]23 [67(a), (1aS,3aR,6bR)-2-Acetyl-1-oxo-5-(4-pyridin-3-yl-thiazol-2-ylsulphanylmethyl)-1a,2,3,3a,4,6b-hexahydro-1H-2,6a-diazacyclobut[cd]indene-6-carboxylic acid sodium salt]
4 | 8 | – | – | O=C(O)C1=C(CSc2nc(-c3cccnc3)cs2)C[C@@H]2CN(C(=O)C(F)(F)F)[C@@H]3C(=O)N1[C@H]23 [67(b), (1aS,3aR,6bR)-1-Oxo-5-(4-pyridin-3-yl-thiazol-2-ylsulphanylmethyl)-2-trifluoroacetyl-la,2,3,3a,4,6b-hexahydro-1H-2,6a-diazacyclobut[cd]indene-6-carboxylic acid sodium salt]
– | – | 1 | 0.5 | CC(=O)N1C[C@H]2CC(CSc3nnnn3CC(N)=O)=C(C(=O)O)N3C(=O)[C@@H]1[C@@H]23 [70(a), (1aS,3aR,6bR)-2-Acetyl-5-(1-carbamoylmethyl-1H-tetrazol-5-ylsulphanylmethyl)-1-oxo-1a,2,3,3a,4,6b-hexahydro-1H-2,6a-diazacyclobut[cd]indene-6-carboxylic acid sodium salt]
– | – | 1 | 0.25 | NC(=O)Cn1nnnc1SCC1=C(C(=O)O)N2C(=O)[C@@H]3[C@H]2[C@H](C1)CN3C=O [70(c), (1aS,3aR,6bR)-5-(1-Carbamoylmethyl-1H-tetrazol-5-ylsulphanylmethyl)-2-formyl-1-oxo-1a,2,3,3a,4,6b-hexahydro-1H-2,6a-diazacyclobut[cd]indene-6-carboxylic acid sodium salt]
2 | 4 | – | – | CC(=O)N1C[C@H]2CC(CSc3ncccn3)=C(C(=O)O)N3C(=O)[C@@H]1[C@@H]23 [72(a), (1aS,3aR,6bR)-2-Acetyl-1-oxo-5-(pyrimidin-2-ylsulphanylmethyl)-1a,2,3,3a,4,6b-hexahydro-1H-2,6a-diazacyclobut[cd]indene-6-carboxylic acid sodium salt]
4 | 2 | – | – | O=C(O)C1=C(CSc2ncccn2)C[C@@H]2CN(C(=O)C(F)(F)F)[C@@H]3C(=O)N1[C@H]23 [72(b), (1aS,3aR,6bR)-1-Oxo-5-(pyrimidin-2-ylsulphanylmethyl)-2-trifluoroacetyl-1a,2,3,3a,4,6b-hexahydro-1H-2,6a-diazacyclobut[cd]indene-6-carboxylic acid sodium salt]
2 | 1 | – | – | CNC(=O)Cn1nnnc1SCC1=C(C(=O)O)N2C(=O)[C@@H]3[C@H]2[C@H](C1)CN3C(C)=O [74(a), (1aS,3aR,6bR)-2-Acetyl-5-(1-methylcarbamoylmethyl-1H-tetrazol-5-ylsulphanylmethyl)-1-oxo-1a,2,3,3a,4,6b-hexahydro-1H-2,6a-diazacyclobut[cd]indene-6-carboxylic acid sodium salt]
1 | 0.5 | – | – | CC(=O)N1C[C@H]2CC(CSc3nnnn3CC(=O)Nc3ccc(O)cc3)=C(C(=O)O)N3C(=O)[C@@H]1[C@@H]23 [78(a), (1aS,3aR,6bR)-2-Acetyl-5-[1-(4-hydroxy-phenylcarbamoylmethyl)-1H-tetrazol-5-ylsulphanylmethyl]-1-oxo-1a,2,3,3a,4,6b-hexahydro-1H-2,6a-diazacyclobut[cd]indene-6-carboxylic acid sodium salt]
1 | 1 | – | – | O=C(Cn1nnnc1SCC1=C(C(=O)O)N2C(=O)[C@@H]3[C@H]2[C@H](C1)CN3C(=O)C(F)(F)F)Nc1ccc(O)cc1 [78(b), (1aS,3aR,6bR)-5-[1-(4-Hydroxy-phenylcarbamoylmethyl)-1H-tetrazol-5-ylsulphanylmethyl]-1-oxo-2-trifluoroacetyl-1a,2,3,3a,4,6b-hexahydro-1H-2,6a-diazacyclobut[cd]indene-6-carboxylic acid sodium salt]
2 | 0.5 | – | – | CC(=O)N1C[C@H]2CC(CN=[N+]=[N-])=C(C(=O)O)N3C(=O)[C@@H]1[C@@H]23 [83(a), (1aS,3aR,6bR)-2-Acetyl-5-azidomethyl-1-oxo-1a,2,3,3a,4,6b-hexahydro-1H-2,6a-diazacyclobut[cd]indene-6-carboxylic acid sodium salt]
0.5 | 0.5 | – | – | [N-]=[N+]=NCC1=C(C(=O)O)N2C(=O)[C@@H]3[C@H]2[C@H](C1)CN3C(=O)C(F)(F)F [83(b), (1aS,3aR,6bR)-5-Azidomethyl-2-trifluoroacetyl-1-oxo-1a,2,3,3a,4,6b-hexahydro-1H-2,6a-diazacyclobut[cd]indene-6-carboxylic acid sodium salt]

Further lines, the compound ahead of its results:

SMILES | MIC E. coli 1346 (E) (E. coli 1346; Table 4) [µg/mL] | MIC C. freundii 1982 (D) [1, 2] [µg/mL] | MIC E. coli 1346 (E) (E. coli 1346; [3]) [µg/mL] | MIC C. freundii 1982 (D) [1, 4] [µg/mL]
Cc1nnc(SCC2=C(C(=O)[O-])N3C(=O)[C@@H]4[C@H]3[C@H](C2)CN4C(=O)C[n+]2cccc(C(N)=O)c2)s1 [65(d), (1aS,3aR,6bR)-2-(3-Carbamoyl-pyridin-1-ylioacetyl)-5-(5-methyl-1,3,4-thiadiazol-2-ylsulphanylmethyl)-1-oxo-1a,2,3,3a,4,6b-hexahydro-1H-2,6a-diazacyclobut[cd]indene-6-carboxylic acid sodium salt] | 16 | 2 | – | –
Cc1nnc(SCC2=C(C(=O)O)N3C(=O)[C@@H]4[C@H]3[C@H](C2)CN4C(=O)CSc2nnc(N)s2)s1 [65(f), (1aS,3aR,6bR)-2-(2-Amino-1,3,4-thiadiazol-5-ylsulphanylacetyl)-5-(5-methyl-1,3,4-thiadiazol-2-ylsulphanylmethyl)-1-oxo-1a,2,3,3a,4,6b-hexahydro-1H-2,6a-diazacyclobut[cd]indene-6-carboxylic acid sodium salt] | 2 | 0.5 | – | –
Cc1nnc(SCC2=C(C(=O)O)N3C(=O)[C@@H]4[C@H]3[C@H](C2)CN4C(=O)CSCC(N)=O)s1 [65(g), (1aS,3aR,6bR)-2-Carbamoylmethylsulphanylacetyl-5-(5-methyl-1,3,4-thiadiazol-2-ylsulphanylmethyl)-1-oxo-1a,2,3,3a,4,6b-hexahydro-1H-2,6a-diazacyclobut[cd]indene-6-carboxylic acid sodium salt] | 8 | 0.5 | – | –
NC(=O)Cn1nnnc1SCC1=C(C(=O)O)N2C(=O)[C@@H]3[C@H]2[C@H](C1)CN3C(=O)C(F)(F)F [70(b), (1aS,3aR,6bR)-5-(1-Carbamoylmethyl-1H-tetrazol-5-ylsulphanylmethyl)-2-trifluoroacetyl-1-oxo-1a,2,3,3a,4,6b-hexahydro-1H-2,6a-diazacyclobut[cd]indene-6-carboxylic acid sodium salt] | 1 | 0.5 | – | –
CNC(=O)Cn1nnnc1SCC1=C(C(=O)O)N2C(=O)[C@@H]3[C@H]2[C@H](C1)CN3C(=O)C(F)(F)F [74(b), (1aS,3aR,6bR)-5-(1-Methylcarbamoylmethyl-1H-tetrazol-1-ylsulphanylmethyl)-1-oxo-2-trifluoroacetyl-1a,2,3,3a,4,6b-hexahydro-1H-2,6a-diazacyclobut[cd]indene-6-carboxylic acid sodium salt] | 1 | 1 | – | –
CC(=O)N1C[C@H]2CC(CSc3nc[nH]n3)=C(C(=O)O)N3C(=O)[C@@H]1[C@@H]23 [76(a), (1aS,3aR,6bR)-2-Acetyl-1-oxo-5-(1H-1,2,4-triazol-3-ylsulphanylmethyl)-1a,2,3,3a,4,6b-hexahydro-1H-2,6a-diazacyclobut[cd]indene-6-carboxylic acid sodium salt] | 2 | 1 | – | –
O=C(O)C1=C(CSc2nc[nH]n2)C[C@@H]2CN(C(=O)C(F)(F)F)[C@@H]3C(=O)N1[C@H]23 [76(b), (1aS,3aR,6bR)-1-Oxo-5-(1H-1,2,4-triazol-3-ylsulphanylmethyl)-2-trifluoroacetyl-1a,2,3,3a,4,6b-hexahydro-1H-2,6a-diazacyclobut[cd]indene-6-carboxylic acid sodium salt] | ≤ 0.25 | 0.5 | – | –
CC(=O)N1C[C@H]2CC(CSc3nnnn3CC(=O)NCCc3ccccc3)=C(C(=O)O)N3C(=O)[C@@H]1[C@@H]23 [80(a), (1aS,3aR,6bR)-2-Acetyl-1-oxo-5-[1-(phenethylcarbamoylmethyl)-1H-tetrazol-5-ylsulphanylmethyl]-1a,2,3,3a,4,6b-hexahydro-1H-2,6a-diazacyclobut[cd]indene-6-carboxylic acid sodium salt] | 0.5 | 4 | – | –
CC(=O)N1C[C@H]2CC(CNS(C)(=O)=O)=C(C(=O)O)N3C(=O)[C@@H]1[C@@H]23 [88(a), (1aS,3aR,6bR)-2-Acetyl-5-methylsulphonylaminomethyl-1-oxo-1a,2,3,3a,4,6b-hexahydro-1H-2,6a-diazacyclobut[cd]indene-6-carboxylic acid sodium salt] | 16 | 4 | – | –
